Consider five molecules from patent US4997838A, “Pyrrolopyrimidine derivatives, their production and use” (Takeda Chemical Industries, Ltd., priority 1988, dated 1991).

Data set [1] deals with Human fetal normal lung fibroblasts HEL. In words: cell growth inhibiting effect in HEL cells (MTT). The settings on record: Fibroblast, 72 hours. It counts as cell-based. As to the method:
(2) Human fetal normal lung fibroblasts HEL (1×10^4 cells/ml) were suspended in the MEM culture medium (Nippon Flow Laboratories) and 0.1 ml of the suspension was inoculated into each well of the 96-microwellplate. After standing culture at 37° C. under 5% CO2 for 24 hours, MEM culture medium containing the compound of this invention was added and the mixture was incubated for further 72 hours. The medium was replaced by the medium containing 1 μg/ml of MTT (Dojindo Laboratories), to which was added 10% SDS (Wako Pure Chemicals), and incubated overnight. Absorbance at 590 nm was measured by he Multiscan (Titertec Co.). The IC50 value was determined by comparing the absorbance in the untreated control group.

The subject of data set [2] is Human Leukemia cells HL-60. The data set can be described thus: cell growth inhibiting effect in HL-60 cells ([3H]-thymidine incorporation). The conditions noted are these: HL-60, 68 hours + 4 hours [3H]-thymidine. The format is cell-based. As for the experimental part: (1) Human Leukemia cells HL-60 (2×10^5 cells/ml) were suspended in the GIT culture medium (Wako Pure Chemicals) containing the compound of this invention and 0.2 ml of the suspension was inoculated into each well of the 96-microwell plate. After standing culture at 37° C. under 5% CO2 for 68 hours, 1 μCi of [^3 H]-thymidine (5 Ci/mmol) was added and the mixture was incubated for 4 further hours. For measurement of the incorporation of thymidine into the cells, the acid-insoluble fraction was collected on a glass filter, and the radioactivity of the fraction was measured by a liquid scintillation counter. The IC50 value of the compound was defined as the concentration of the compound required to decrease the radioactivity incorporated into the cells in the untreated control group by 50%.
A general note: Incorporation of labelled thymidine or its analogues reports DNA synthesis.

Data set [3] deals with Human nasopharyngeal cancer KB cells. The data set can be described thus: cell growth inhibiting effect in KB cells (MTT). The format is cell-based. The conditions noted are these: 72 hours. As to the method: Human nasopharyngeal cancer KB cells (1×10^4 cells/ml) prepared according to a conventional method were inoculated into each well of the 96-microwell plate (0.1 ml in a well) and subjected to standing culture at 37° C. under 5% CO2 for 24 hours. To this was added a solution of one of the compounds obtained in the Working Examples in 10% MEM (Nissui Pharmaceutical Co. Ltd.), and subjected again to standing culture at 37° C. under 5% CO2 for 72 hours. Then the culture was pipetted out, and another 0.1 ml of the solution of MTT (Dojindo Laboratories) in 10% MEM (1.0 mg/ml) was added and incubated at 37° C. for 4 hours. Then 0.1 ml of the 10% SDS solution (Wako Pure Chemicals) was added and incubated at 37° C. for further 24 hours. The absorbance at 590 nm was measured and the IC50 value of the compound was defined as the concentration of the compound required to decrease the number of cells in the untreated control group by 50%.

The next data set has as its system solid cancer. The settings on record: in words; clinical use; cited from earlier work.
The subject of data set [4] is dihydrofolic acid reductase. The settings on record: in words; cited from earlier work.

Values after ≈ are worked out from the molar mass of the structure shown.

In general, IC50 refers to the concentration that inhibits the measured activity by half.

`Nc1nc(O)c2c(n1)NCC2CCCc1ccc(C(=O)N[C@@H](CCC(=O)O)C(=O)O)cc1` (stereo partly drawn) [Working Example 14, N-[4-[3-(2-amino-4-hydroxy-5,6-dihydropyrrolo[2,3-d]pyrimidin-5-yl)propyl]benzoyl]-L-glutamic acid]: the figures for the IC50 in data set [1] and in data set [2] were > 20 mg/L and 0.04 mg/L, respectively.

On to `Nc1nc(N)c2c(CCCc3ccc(C(=O)N[C@@H](CCC(=O)O)C(=O)O)cc3)c(O)[nH]c2n1` [Working Example 6, N-[4-[3-(2,4-diamino-6-hydroxy-7H-pyrrolo[2,3-d]pyrimidin-5-yl)propyl]benzoyl]-L-glutamic acid], for which the IC50 in data set [3] stood at 0.08 mg/L (≈ 175 nM).

`CN(Cc1cnc2nc(N)nc(N)c2n1)c1ccc(C(=O)N[C@@H](CCC(=O)O)C(=O)O)cc1` [MTX]: in the data set on solid cancer, the “effect on solid cancer” value is given as “little effect on solid cancer” and the toxicity result was “relatively strong toxicity”. In addition, the “inhibition of dihydrofolic acid reductase” value in data set [4] was “inhibit the reduction from dihydrofolic acid into tetrahydrofolic acid by coupling strongly with the dominant enzyme”.

`Nc1nc(N)c2c(CCCc3ccc(C(=O)N[C@@H](CCC(=O)O)C(=O)O)cc3)c[nH]c2n1` [Working Example 4, N-[4-[3-(2,4-diamino-7H-pyrrolo [2,3-d]pyrimidin-5-yl)propyl]benzoyl]-L-glutamic acid] returned an IC50 in data set [3] of 0.0003 mg/L (≈ 0.681 nM).

In the case of `Nc1nc(N)c2c(n1)NCC2CCCc1ccc(C(=O)N[C@@H](CCC(=O)O)C(=O)O)cc1` (stereo partly drawn) [Working Example 16, N-[4-[3-(2,4-diamino-5,6-dihydropyrrolo[2,3-d]pyrimidin-5-yl)propyl]benzoyl]-L-glutamic acid], half-maximal inhibition in data set [3] (IC50) required 0.0006 mg/L (≈ 1.36 nM).
